Values quoted from earlier work, collected in PMC3201700 (Journal of agricultural and food chemistry, 2011).
Like-named read-outs stand apart in the source and are kept apart here.

Experiments:
MRP1 and MRP2 = conditions: SFN compared with ERN
[1] = rats

## C[S+]([O-])CCCCN=C=S (stereo not drawn) [SFN, sulforaphane]
MRP1 and MRP2
  Induction of MRP1 and MRP2 (phase III detoxification): substantially more potent than ERN

## C[S+]([O-])CCCC/C(=N\OS(=O)(=O)O)S[C@@H]1O[C@H](CO)[C@@H](O)[C@H](O)[C@H]1O (stereo partly drawn) [glucoraphanin]
[1]; by gavage
  Recovery of the dose in the urine after 24 h: 27.6%
[1]; in the diet
  Recovery of the dose in the urine after 24 h: 23.8%
